Data on one compound can be found in patent publication US20160242450A1, “Functional-gel Compositions and Methods” (priority 2014, published 2016).

The nature of the assay: Energy intake and weight loss rodent study, preloads before high fat diet (Experiment 2). The assay is classed as in vivo. The conditions noted are these: mice on high fat diet, daily preload one hour before diet. An excerpt:
Fifteen adult female feeder mice were preconditioned for 15 days on a […]. PicoLab Rodent diet 20 was supplemented to […] by adding a mixture of fats consisting of (38% butter, 30% shortening, 23% lard, and 8% canola oil). High fat diet was provided ad libitum. After the pre-conditioning period mice were assigned to one of four groups ([…]) to generate similar mean body weights between groups as described below. Mice were given control or test article preloads one hour prior to receiving ad libitum high fat diet on a daily basis, mice received high fat diet at ad libitum over night (rodent active period of the day) and were fasted during day time hours (the rodent dormant period of the day). Body weights were obtained on Day 15 and Day 30 post treatment initiation and data was used to calculate change in body weight from baseline, Day 0. Mean body weights (FIG. 1) and % change in body weight (FIG. 2) data is provided with corresponding SEM. Partially hydrolyzed collagen (GEL group) test article was hydrated in 10× in hot water then allowed to set to firm gel 4-8° C. overnight. Wheat Flour (FLOU group) and Psyllium (PSY group) test articles were hydrated in water. Wheat Flour was cooked via microwave for 2 min at an 800 Watt setting.

As for `CCCCCCCCCCC[C@@H](C[C@@H]1OC(=O)[C@H]1CCCCCC)OC(=O)[C@H](CC(C)C)NC=O` [ALLI, Orlistat], the “Body weight change over a 30 day treatment period (FIG. 1, FIG. 2)” value is on record as “weight loss”.
